Test results published in patent US9409868B2, “Inhibitors of rho associated protein kinases (ROCK) and methods of use” (H. LEE MOFFITT CANCER CENTER AND RESEARCH INSTITUTE, INC., priority 2012, dated 2016).
Like-named read-outs stand apart in the source and are kept apart here.

What was measured:
[1] = biological target: ROCK1 (Homo sapiens (Human), UniProt Q13464); assay: Z-Lyte FRET kinase assay, ROCK1; assay type: biochemical
Source text: (§1) Kinase Assay. A robust FRET-based, enzyme-coupled assay format, Z-Lyte® Kinase Assay Ser/[…] Peptide Kit (Invitrogen, cat. PV3793), was employed in this study to monitor inhibition of ROCK1 (Invitrogen, cat. PV3691) and ROCK2 (Invitrogen, cat. PV3759) enzyme activities. […] The substrate contains both coumarin and fluorescein and only uncleaved […] substrate will undergo FRET. […] A known inhibitor, Y-27632 (Tocris Bioscience, cat. 1254), is used as a control compound.

[2] = biological target: T1, ROCK2 (Homo sapiens (Human), UniProt O75116); assay: Z-Lyte FRET kinase assay, ROCK2; assay type: biochemical
Source text: as §1

[3] = system: phosphorylation of MLC2 (ROCK substrate) in MDA-MB-231 cells; assay: Western blot of MLC2 phosphorylation in MDA-MB-231 breast cancer cells; assay type: cell-based, human; conditions: 1 hr, MDA-MB-231, FIG. 4
Protocol: Western Blot Analysis. MDA-MB-468, MDA-MB-231, MCF-7, DU-145, H460, A549, HT29 and HCT116 cells (ATCC, Rockville, Md., USA) were plated in 6-well tissue culture plate. The cells were then treated next day with different concentrations of the RKIs for 1 h. After incubation, the cells were harvested, lysed, quantified and blotted for P-MLC2 (Cat no. 3671S), total-MLC2 (Cat no. 3672S), P-MEK (S298) (Cat no. 9128S), total-MEK (Cat no. 9122S), P-S6 (Cat no. 2155S), total-S6 (2217S), P-Erk (Cat no. 9101L), total Erk (Cat no. 9102L), P-Akt (Cat no. 9271L), total Akt (Cat no. 9272L) (Cell Signaling, Danvers, Mass., USA) and tubulin (Cat no. 5168) (Sigma, St Louis, Mo., USA) antibodies as described by us previously

[4] = system: MDA-MB-231 cells; assay: MTT assay, anchorage-dependent proliferation; assay type: cell-based, human
Protocol: MTT Assay. MTT assay was performed to determine the effects of RKIs on anchoragedependent cell proliferation. Briefly, cells were plated in a 96-well tissue culture plate (1200 cells per well) and incubated for 24 h. After incubation, the cells were treated with vehicle or increasing concentrations of RKI-11 or RKI-18 ([…]). After 72 h incubation, freshly prepared MTT (2 mg/ml) was added to each well and incubated for 3 h. After incubation, the plates were read at 540 nm.

[5] = system: NIH 3T3 cells; assay: Cell morphology assay (phalloidin staining) in starved NIH 3T3 cells; assay type: cell-based; design: dose or concentration left out as unconfirmed; conditions: starved NIH 3T3, FIG. 6
Protocol: Cell Morphology Assay. NIH 3T3 cells were plated at 8000 cells per well in 8-chamber slide in serum-free media (serum starvation) for 24 h. After serum starvation, the cells were treated with vehicle or the RKIs for 1 h. After treatment, the cells were stimulated with […] LPA, 200 ng/ml bradykinin or 30 ng/ml PDGF for 30 min. After stimulation, the cells were fixed with 4% paraformaldehyde, permeabilized using 0.1% Triton X-100 and stained with Texas-Red phalloidin (Cat no. T7471) (Invitrogen, Eugene, Oreg., USA) and DAPI (40,6 diamidino-2-phenylindole: counterstains DNA) (Cat no. H-1200; Vector Laboratories, Burlingame, Calif., USA). The cells were imaged using Zeiss Upright Fluorescence Microscope.

[6] = system: MDA-MB-231 cells; assay: Soft agar anchorage-independent growth assay; assay type: cell-based, human
Protocol: Soft Agar Assay. MDA-MB-231 cells were seeded in a 12-well tissue culture plate at 1200 cells per well in regular growth media and 0.3% agar. The cells were treated with different doses of RKI-11 and RKI-18, allowed to grow for 4 weeks, after which the colonies were stained overnight with 1 mg/ml MTT and counted.

[7] = system: MDA-MB-231 cells; assay: Matrigel Transwell invasion assay; assay type: cell-based, human; conditions: for inhibition of invasion (figure legend): FIG. 8
Protocol: Invasion Assay. Invasion assay was performed in Corning Transwell inserts coated with Matrigel. MDA-MB-231 cells were seeded at 3.5_105 and allowed to grow overnight in a 6-well plate. The cells were treated with either vehicle or different doses of RKIs for 24 h. After treatment, the cells were trypsinized, resuspended and plated in the inserts. The bottom chamber contained 20% FBS as the ‘chemoattractant’. The cells were kept in the incubator for 48 h. After incubation, the cells were stained and membrane was quantified.

[8] = system: MDA-MB-231 cells; assay: Wound-healing scratch migration assay; assay type: cell-based, human; conditions: for inhibition of migration (wound-healing scratch assay): FIG. 8a
Protocol: Wound-Healing-Migration Assay. MDA-MB-231 cells were seeded at 4_105 cells per well in a 6-well plate and allowed to grow overnight at 37 1C and 5% CO2. The cells were starved for 24 h and scratched. The cells were then treated with different concentrations of RKIs in regular growth media for 24 h. Images of the scratch were acquired at 0 h and 24 h.

[9] = system: MDA-MB-231 cells; assay: Apoptosis by caspase 3 activation and PARP cleavage; assay type: cell-based, human; conditions: up to 30 mM (so in the source)
[10] = biological target: Aurora-A (Homo sapiens (Human), UniProt O14965); assay: Aurora-A inhibition (selectivity); assay type: biochemical; conditions: FIG. 2
[11] = biological target: T1, ROCK2; conditions: Feng et al. 2008; read-out: ROCK2 enzymatic activity IC50 (reported); cited from earlier work
[12] = biological target: T1, ROCK2; conditions: different assay conditions; read-out: ROCK 2 IC50 (previously reported); cited from earlier work

Sequence of ROCK1 (Q13464 whole entry): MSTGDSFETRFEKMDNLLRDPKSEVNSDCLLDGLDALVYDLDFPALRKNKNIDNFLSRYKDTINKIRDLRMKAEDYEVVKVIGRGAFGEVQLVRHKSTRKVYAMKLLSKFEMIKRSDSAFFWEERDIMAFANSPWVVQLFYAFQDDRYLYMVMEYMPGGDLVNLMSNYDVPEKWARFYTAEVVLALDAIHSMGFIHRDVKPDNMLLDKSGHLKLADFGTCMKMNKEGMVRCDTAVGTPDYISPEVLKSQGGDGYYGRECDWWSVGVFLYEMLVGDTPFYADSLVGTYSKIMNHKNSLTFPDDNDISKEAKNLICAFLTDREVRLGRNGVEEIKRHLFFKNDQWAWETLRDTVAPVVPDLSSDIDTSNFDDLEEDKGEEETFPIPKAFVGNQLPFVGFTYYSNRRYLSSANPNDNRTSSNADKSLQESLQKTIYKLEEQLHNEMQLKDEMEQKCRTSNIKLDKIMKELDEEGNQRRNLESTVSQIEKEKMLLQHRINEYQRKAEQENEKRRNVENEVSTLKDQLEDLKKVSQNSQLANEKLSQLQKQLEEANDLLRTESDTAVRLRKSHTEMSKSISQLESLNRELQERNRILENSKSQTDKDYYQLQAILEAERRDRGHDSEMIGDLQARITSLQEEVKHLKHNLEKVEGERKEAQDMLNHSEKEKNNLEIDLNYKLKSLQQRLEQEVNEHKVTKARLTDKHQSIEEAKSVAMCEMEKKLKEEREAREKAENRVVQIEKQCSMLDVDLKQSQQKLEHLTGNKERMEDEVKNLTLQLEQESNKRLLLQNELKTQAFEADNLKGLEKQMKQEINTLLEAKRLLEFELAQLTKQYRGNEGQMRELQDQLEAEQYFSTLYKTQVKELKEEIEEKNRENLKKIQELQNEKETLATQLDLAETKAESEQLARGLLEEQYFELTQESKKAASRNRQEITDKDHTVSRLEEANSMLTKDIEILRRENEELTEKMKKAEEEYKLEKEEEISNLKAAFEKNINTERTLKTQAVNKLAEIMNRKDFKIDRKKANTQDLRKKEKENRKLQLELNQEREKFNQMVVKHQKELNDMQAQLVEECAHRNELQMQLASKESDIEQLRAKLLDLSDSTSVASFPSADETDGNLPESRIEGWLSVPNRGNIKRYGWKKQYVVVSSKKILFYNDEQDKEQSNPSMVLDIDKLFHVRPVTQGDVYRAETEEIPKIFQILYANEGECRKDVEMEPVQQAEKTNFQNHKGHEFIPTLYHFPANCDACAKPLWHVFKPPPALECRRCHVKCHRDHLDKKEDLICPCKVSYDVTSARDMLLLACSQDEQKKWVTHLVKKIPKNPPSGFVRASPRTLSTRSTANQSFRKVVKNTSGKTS
T1 sequence (O75116 whole entry, species assumed): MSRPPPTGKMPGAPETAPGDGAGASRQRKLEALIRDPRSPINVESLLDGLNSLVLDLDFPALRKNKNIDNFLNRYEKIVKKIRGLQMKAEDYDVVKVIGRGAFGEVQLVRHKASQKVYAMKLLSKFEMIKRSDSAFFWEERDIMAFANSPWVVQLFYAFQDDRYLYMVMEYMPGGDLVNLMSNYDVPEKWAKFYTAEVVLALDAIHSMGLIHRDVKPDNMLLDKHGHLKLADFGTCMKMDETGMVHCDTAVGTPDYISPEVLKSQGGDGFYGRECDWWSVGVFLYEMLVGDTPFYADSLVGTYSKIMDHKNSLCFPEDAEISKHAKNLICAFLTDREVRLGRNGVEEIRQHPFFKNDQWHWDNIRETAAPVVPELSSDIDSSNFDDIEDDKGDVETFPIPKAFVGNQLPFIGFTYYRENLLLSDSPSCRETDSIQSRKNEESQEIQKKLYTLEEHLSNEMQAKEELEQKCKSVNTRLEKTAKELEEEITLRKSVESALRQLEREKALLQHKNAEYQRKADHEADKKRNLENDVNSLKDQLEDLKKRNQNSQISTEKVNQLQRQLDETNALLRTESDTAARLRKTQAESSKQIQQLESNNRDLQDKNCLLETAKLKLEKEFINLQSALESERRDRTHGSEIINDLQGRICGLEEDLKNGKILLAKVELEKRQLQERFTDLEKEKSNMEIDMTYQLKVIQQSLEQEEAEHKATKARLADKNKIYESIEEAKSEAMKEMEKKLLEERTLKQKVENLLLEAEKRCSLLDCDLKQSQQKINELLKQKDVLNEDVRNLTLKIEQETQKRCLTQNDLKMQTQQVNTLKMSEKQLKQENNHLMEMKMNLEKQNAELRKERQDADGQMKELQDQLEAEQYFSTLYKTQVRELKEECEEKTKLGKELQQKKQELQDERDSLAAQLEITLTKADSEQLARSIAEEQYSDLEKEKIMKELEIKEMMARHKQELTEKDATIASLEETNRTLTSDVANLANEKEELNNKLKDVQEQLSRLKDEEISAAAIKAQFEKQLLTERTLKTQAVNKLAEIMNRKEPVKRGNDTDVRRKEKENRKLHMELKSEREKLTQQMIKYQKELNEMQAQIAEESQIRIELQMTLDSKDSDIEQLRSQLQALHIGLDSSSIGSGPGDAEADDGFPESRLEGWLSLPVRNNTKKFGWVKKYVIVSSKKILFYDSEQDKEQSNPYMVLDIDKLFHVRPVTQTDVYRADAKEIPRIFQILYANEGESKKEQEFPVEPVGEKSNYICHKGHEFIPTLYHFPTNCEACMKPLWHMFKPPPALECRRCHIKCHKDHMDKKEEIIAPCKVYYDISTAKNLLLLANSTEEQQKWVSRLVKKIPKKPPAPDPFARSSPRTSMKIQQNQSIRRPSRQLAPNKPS
Sequence of Aurora-A (O14965 whole entry): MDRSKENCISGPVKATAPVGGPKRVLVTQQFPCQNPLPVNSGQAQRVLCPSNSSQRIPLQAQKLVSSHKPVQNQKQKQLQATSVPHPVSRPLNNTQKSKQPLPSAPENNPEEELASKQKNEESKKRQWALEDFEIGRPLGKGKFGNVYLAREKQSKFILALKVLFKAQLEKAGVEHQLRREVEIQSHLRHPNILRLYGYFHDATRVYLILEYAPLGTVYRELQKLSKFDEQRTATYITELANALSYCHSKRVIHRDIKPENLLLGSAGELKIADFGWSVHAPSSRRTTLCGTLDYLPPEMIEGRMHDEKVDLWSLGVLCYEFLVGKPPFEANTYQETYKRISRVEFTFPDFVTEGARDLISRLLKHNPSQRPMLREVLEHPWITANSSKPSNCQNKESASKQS

SMILES | IC50 ([1]; triplicate experiments) [nM] | IC50 ([2]; triplicate experiments) [nM] | other results
CN(C)C(=O)Nc1ccc2[nH]ncc2c1 [Compound 10, 3-(1H-Indazol-5-yl)-1,1-dimethylurea] | 59000 | 36100 ± 5900 | –
CN(CCc1ccccc1)C(=O)Nc1ccc2[nH]ncc2c1 [Compound 13, 3-(1H-Indazol-5-yl)-1-methyl-1-phenethylurea] | 21500 ± 7300 | 7500 ± 1700 | –
O=C(NCCc1ccc(Cl)cc1)Nc1ccc2[nH]ncc2c1 [Compound 17, 1-(4-Chlorophenethyl)-3-(1H-indazol-5-yl)urea] | 2200 ± 1000 | 1100 ± 300 | –
O=C(Nc1ccc2[nH]ncc2c1)N[C@H](CO)Cc1ccccc1 [Compound 14, (S)-1-(1-Hydroxy-3-phenylpropan-2-yl)-3-(1H-indazol-5-yl)urea] | 4600 ± 2100 | 2300 ± 600 | –
CC(=O)Nc1ccc2[nH]ncc2c1 [N-(1H-indazole-5-yl)acetamide] | 65000 | 40000 | –
O=C(NCCc1ccccc1)Nc1ccc(-c2ccncc2)cc1 [Compound 25, 1-Phenethyl-3-(4-(pyridin-4-yl)phenyl)urea] | 2610 ± 410 | 19800 ± 3290 | –
O=C(Nc1ccc(-c2ccncc2)cc1)N[C@H](CO)Cc1ccccc1 [Compound 27, (S)-1-(1-Hydroxy-3-phenylpropan-2-yl)-3-(4-(pyridin-4-yl)phenyl)urea] | 31000 ± 10500 | 32900 ± 4670 | –
O=C(NCCc1ccccc1)Nc1ccc2[nH]ncc2c1 [Compound 18, 1-(1H-Indazol-5-yl)-3-phenethylurea] | – | – | P-MLC2 levels ([3]; 10 μM): greatly decreased; IC50 ([4]; Homo sapiens, MDA-MB-231, 72 h, unit given as mM): 0.032 mM; potency at anchorage-dependent proliferation compared to anchorage-independent growth ([4]; MDA-MB-231): four-fold less potent; LPA-induced stress fiber formation ([5]; listed as RKI-18): inhibits; PDGF-induced lamelipodia formation ([5]; listed as RKI-18): inhibits; bradykinin-induced filopodia formation ([5]; listed as RKI-18): inhibits; inhibition of anchorage-independent growth (figure legend) ([6]; MDA-MB-231, FIG. 7): inhibits; inhibition of invasion (figure legend) [7]: inhibits; inhibition of migration (figure legend) ([8]; FIG. 8): inhibits; inhibition of migration (wound-healing scratch assay) ([8]; concentration-dependent manner starting at 3 mM (so in the source)): inhibited the migration; induction of apoptosis (caspase 3 activation and PARP cleavage) [9]: did not induce apoptosis
O=C(Nc1ccc(-c2ccncc2)cc1)N[C@H](CO)c1ccccc1 [Compound 24, (S)-1-(2-Hydroxy-1-phenylethyl)-3-(4-(pyridin-4-yl)phenyl)urea] | 1700 | 100 | P-MLC2 levels ([3]; 1 μM): greatly decreased; P-MLC2 levels ([3]; 10 μM): greatly decreased; LE (Ligand Efficiency), ROCK1 [1]: 0.31; fold difference for ROCK1 ([1]; 24 (S) versus 23 (R)): five fold; LE (Ligand Efficiency), ROCK2 [2]: 0.38; fold more kinase inhibitory activity for ROCK 2 ([2]; 24 (S) versus 23 (R)): 75 fold
O=C(Nc1ccc(-c2ccncc2)cc1)N[C@@H](CO)c1ccccc1 [Compound 23, (R)-1-(2-Hydroxy-1-phenylethyl)-3-(4-(pyridin-4-yl)phenyl)urea] | 9000 | 8000 | P-MLC2 levels ([3]; 1 μM): no effect; P-MLC2 levels ([3]; 10 μM): less potent than 24; LE (Ligand Efficiency), ROCK1 [1]: 0.28; LE (Ligand Efficiency), ROCK2 [2]: 0.28; IC50 ([2]; values in nM): 7520 nM
O=C(NCC(O)c1ccccc1)Nc1ccc2[nH]ncc2c1 (stereo not shown) [Compound 15, 1-(2-Hydroxy-2-phenylethyl)-3-(1H-indazol-5-yl)urea] | 2900 ± 800 | – | IC50 [2]: 1500 ± 400 nM
O=C(Nc1ccncc1)c1cnccc1Cl [Compound 4, 4-Chloro-N-(pyridin-4-yl)nicotinamide] | 72500 ± 6800 | 221000 ± 25700 | –
O=C(NCCCc1ccccc1)Nc1ccc2[nH]ncc2c1 [Compound 19, 1-(1H-indazol-5-yl)-3-(3-phenylpropyl)urea] | 2460 ± 550 | 1070 | –
O=C(Nc1ccccc1)Nc1ccc2[nH]ncc2c1 [Compound 11, 1-(1H-Indazol-5-yl)-3-phenylurea] | 157000 | 62000 | LPA-induced stress fiber formation [5]: not; bradykinin-induced filopodia formation [5]: not; effect on anchorage independent growth ([6]; at 60 mM (so in the source)): little effect; inhibition of invasion (figure legend) [7]: not; effect on cell invasion ([7]; at 60 mM (so in the source), FIG. 8b): no effect; inhibition of migration (wound-healing scratch assay) ([8]; at 60 mM (so in the source)): did not inhibit
COc1ccc(CCNC(=O)Nc2ccc3[nH]ncc3c2)cc1 [Compound 16, 1-(1H-Indazol-5-yl)-3-(4-methoxyphenethyl)urea] | 2600 ± 600 | 800 ± 300 | –
O=C(Nc1nc(-c2ccncc2)cs1)C1COc2ccccc2O1 (stereo not shown) [CID5056270, reference compound] | – | – | IC50 [10]: > 100 µM; IC50 ([1]; values in nM): 13 nM; IC50 ([2]; values in nM): 0.56 nM; IC50 [11]: < 3 nM
Nc1ccc2[nH]ncc2c1 [Compound 8, 5-Aminoindazole] | – | – | IC50 [1]: 181000 nM; IC50 [2]: 120000 nM
O=C(Nc1ccc(-c2ccncc2)cc1)N[C@@H](CO)Cc1ccccc1 [Compound 26, (R)-1-(1-Hydroxy-3-phenylpropan-2-yl)-3-(4-(pyridin-4-yl)phenyl)urea] | 1410 | 5360 | –
O=C(NCc1ccccc1)Nc1ccc(-c2ccncc2)cc1 [Compound 22, 1-Benzyl-3-(4-(pyridin-4-yl)phenyl)urea] | 1150 | 260 | –
O=C(Nc1ccncc1)c1cccnc1 [Compound 3, N-(Pyridin-4-yl)nicotinamide] | 75500 | 55900 ± 11300 | –
O=C(Nc1ccncc1)c1cncc(Br)c1 [Compound 5, 5-Bromo-N-(pyridin-4-yl)nicotinamide] | 270000 ± 51000 | 357000 ± 35300 | –
O=C(NCc1ccccc1)Nc1ccc2[nH]ncc2c1 [Compound 12, 1-Benzyl-3-(1H-indazol-5-yl)urea] | 14000 | 5500 ± 3100 | IC50 [12]: 260 nM
